Measurements taken from patent US20160015813A1, “NOVEL AND SYNERGISTIC COMPOSITION OF LECITHIN AND LYSOLECITHIN FOR IMPROVING BIOAVAILABILITY AND SOLUBILITY OF HYDROPHOBIC COMPOUNDS AND EXTRACTS” (priority 2014, published 2016).
Read-outs that look alike come from different tables or passages of the source.

Assay: Oral bioavailability study of berberine formulation versus unformulated berberine (berberine concentration in serum)
Type: in vivo, Sprague Dawley rats
Conditions: Sprague Dawley, rat
Method: The study was conducted to evaluate the bioavailability of orally administered curcuminoid compositions (Table 1 and Example. 2), formulated using a synergistic combination of lecithin and lysolecithin in Sprague Dawley rats. Compositions formulated with lecithin or lysolecithin alone were also tested along with Meriva (Batch No FG-6558). These formulations were prepared using similar procedure described in examples 2 and 3. Total of twelve (12) animals were divided into four groups having three animals in each group. The test substances were administered orally to the animals via oral gavage once at 125 mg/Kg body weight active ingredient equivalent to Active ingredient. Pre-dose or 0th time blood samples were collected from all the animals before dosing the test substance, followed by blood sampling at 0.15, 0.5, 1, 1.5, 2, 4, 8, 12 and 24 hrs after dosing the test substance by sinus orbital plexus under anesthesia. Serum was separated from blood by centrifugation and was subjected to LC-MS/MS analysis for estimation of curcumin concentration in serum samples.
The similar protocol was used for the evaluation of oral bio-availability of berberine formulation (Example. 3) in comparison with the unformulated berberine and for estimation of berberine concentration in serum samples. The berberine compound and its formulations were supplemented to the animals at a dose equivalent to 100 mg/kg bodyweight of active Berberine.

AUC(0-t) (serum, 100 mg/kg bodyweight of active Berberine, single oral administration, read-out: Oral exposures (AUClast)): 23.7 ± 7.99 ng·h/mL | Cmax (rats, single oral dose equivalent to 100 mg/kg BW berberine, berberine in serum, 6 animals): 4.2 ± 1.85 ng/mL | AUC(0-t) (rats, single oral dose equivalent to 100 mg/kg BW berberine, berberine in serum, 6 animals, read-out: AUClast (0-24 h)): 23.7 ± 7.99 ng·h/mL
Compound: COc1ccc2cc3[n+](cc2c1OC)CCc1cc2c(cc1-3)OCO2 [LI32001, Berberine]
